Measured values reported in patent US20230346727A1, “COMPOUNDS FOR THE TREATMENT OF HEMOPHILIA” (UNIVERSITE GRENOBLE ALPES, priority 2020, published 2023).

Key:
[1] = system: plasma from the hemophiliac patient (hemophiliac patient A); experiment: Second ex vivo thrombin generation test (CAT analyzer, PPP Reagent LOW); format: biochemical, human; conditions: for Amount of thrombin at the maximum of the peak, normalized to the thrombin peak obtained with adapalene: 50 μM final in plasma (positive control: factor VIII 1 IU/mL), HEPES buffer, negative control 0.13 ± 0.02; for peak of generated thrombin compared to negative and positive control, in words: 50 μM final in plasma
Method: A second thrombin generation test is carried out, for the compounds H27, H31, H32, H35, H38, H39 and the compound H24.
The thrombin generation test was carried out at 37° C. using a CAT analyzer (Diagnostica Stago) with the PPP Reagent LOW reagent (Diagnostica Stago) in accordance with the manufacturer's instructions and according to the method established by Pr. Hemker in 2003. PPP Reagent LOW is a mixture of tissue factor (TF) 1 pM with phospholipid vesicles (PL, 4 μM). The test is triggered by the addition of a mixture of calcium+fluorescent substrate (ZGGR-AMC) (FluCa mixture).
From a technical point of view, 80 μL of surcharged plasma sample is added to 20 μL of «initiator complex» (PPP Reagent LOW) and incubated for 10 min at 37° C. Then, the reaction is triggered by adding 20 μL of FluCa (mixture of CaCl2 and ZGGR-AMC substrate) and the fluorescence signal is measured over time. Each test is performed in triplicate.
For each tested molecule, 247 μL of plasma from the hemophiliac patient were surcharged with 13 μL of a solution containing different amounts of compound (molecule to be tested, factor VIII or dilution buffer) to obtain the desired final concentration (systematic dilution of the molecule to be tested in the plasma at 1/20). For example, to obtain the final concentration of 50 μM in plasma, 13 μL of a 1 mM solution was added to 247 μL of plasma. In parallel with the tests on the different chemical compounds, the plasma of a hemophiliac patient is surcharged with the same buffer for diluting the compound, an 8% solution of dimethyl sulfoxide (DMSO), as a negative control (0.4% of final DMSO) in order to obtain the basal level of thrombin generation of the used plasma. The positive control is the same plasma surcharged with plasma factor VIII (Factane, LFB, France) at a concentration of 1 IU/mL (or 100% factor VIII) in order to obtain the expected «normal» level of thrombin generation used plasma.
For this example, solutions of adapalene and 1 mM compounds were prepared with the buffer (18 mM HEPES, 135 mM NaCl, pH 7.35) instead of water as in Example 1. This modification has made it possible to increase the amount of thrombin generated by the plasma of the hemophiliac patient A in the presence of 50 μM of adapalene.
Compounds were tested at a final concentration of 50 μM in plasma, and signal was measured over time. The obtained results, expressed as the amount of thrombin measured at the maximum of the peak obtained and normalized to the thrombin peak obtained with adapalene, are shown in Table 1 below: […]

[2] = system: plasma from a patient suffering from severe hemophilia A; experiment: Ex vivo thrombin generation test (STA-Genesia, STG-Bleedscreen reagent); format: biochemical, human
Method: The thrombin generation test consists of measuring the kinetics of appearance of this key coagulation factor in the plasma over time. After activation of coagulation by calcium, the amount of thrombin changes over time. It is measured using a synthetic thrombin substrate coupled to a fluorescent molecule (ZGGR-AMC). The main parameters determined are the latency time before observing an increase in thrombin generation, the thrombin peak corresponding to the maximum amount of thrombin generated and the ETP (endogenous thrombin potential) corresponding to the total amount of thrombin generated in plasma during the test. In the case of a patient with hemophilia A, the generation of thrombin is low or even almost zero for some patients. Adding the missing coagulation factor (factor VIII) to its physiological level (1 Ul/mL or 100%) restores coagulation in patients and recovers a «normal» thrombin generation. Thus, the thrombin generation test makes it possible to globally evaluate the coagulation rate of a given plasma and in the present case, it makes it possible to evaluate the capacity of a molecule to restore or not restore coagulation in a hemophiliac patient.
For this example, several ex vivo thrombin generation tests were carried out on plasma from a patient suffering from severe hemophilia A, therefore devoid of factor FVIII, in order to evaluate the effect on coagulation of a compound of general formula (I), more particularly adapalene, of formula (V) above, on the kinetics and the generated amount of thrombin.
Hemophiliac patient plasma was obtained from Cryopep company (Montpellier, France).
Adapalene is commercially available, in particular from Prestwick company. It was dissolved in an 8% dimethylsulfoxide (DMSO) solution then diluted to a concentration of 1 mM and then tested at the following concentrations: 50 μM, 5 μM, 0.5 μM (final concentrations in plasma).
The thrombin generation test was performed at 37° C. using a fully automated STA-Genesia analyzer (Diagnostica Stago) with STG®-Bleedscreen reagent (Diagnostica Stago) according to the manufacturer's instructions and according to the method established by Pr. Hemker in 2003. The STG®-Bleedscreen reagent is a mixture of tissue factor (TF) at low concentration with phospholipid vesicles (PL). The test is triggered by the addition of a mixture of calcium+fluorescent substrate (ZGGR-AMC) (STG®-FluoStart mixture).
From a technical point of view, 4 volumes of surcharged plasma sample are added to 1 volume of «initiator complex» (STG®-Bleedscreen) and incubated for 10 min at 37° C. Then, the reaction is triggered by adding 1 volume of STG®-FluoStart (mixture of CaCl2 and ZGGR-AMC substrate) and the fluorescence signal is measured over time. Each test is performed in duplicate
For each tested molecule, 475 μL of plasma from the hemophiliac patient were surcharged with 25 μL of a solution containing different amounts of compound (molecule to be tested, factor VIII or dilution buffer) to obtain the desired final concentration (systematic dilution of the molecule to be tested in the plasma at 1/20). For example, to obtain the final concentration of 50 μM in plasma, 25 μL of a 1 mM solution was added to 475 μL of plasma. The preparation of 500 μL of surcharged plasma allows to perform the 2 thrombin generation tests (duplicate), the 2 calibration tests (duplicate) and takes into account the dead volume of the automaton.
In parallel with the tests on the different chemical compounds, the plasma of a hemophiliac patient is surcharged with the same buffer for diluting the compound, an 8% solution of dimethylsulfoxide (DMSO), as a negative control (0.4% of final DMSO) in order to obtain the basal level of thrombin generation of the used plasma. The positive control is the same plasma surcharged with plasma factor VIII (Factane, LFB, France) at a concentration of 1 IU/mL (or 100% factor VIII) in order to obtain the expected «normal» level of used thrombin generation plasma. […]

[3] = target: T1, FXa inhibition by TFPI-K1K2 (truncated human TFPI) (Homo sapiens, UniProt P10646, F53G); experiment: FXa activity assay: release of FXa inhibition by TFPI-K1K2 (colorimetric, PNAPEP-1025); format: biochemical; conditions: 50 μM, TFPI-K1K2 30 nM, FXa 0.5 nM
T1 sequence (P10646 29-182 F53G): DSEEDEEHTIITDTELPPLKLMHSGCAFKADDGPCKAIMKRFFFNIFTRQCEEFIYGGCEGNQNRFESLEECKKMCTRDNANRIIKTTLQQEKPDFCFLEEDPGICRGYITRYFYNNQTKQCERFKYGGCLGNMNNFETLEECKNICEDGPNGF
Method: The ability of adapalene to reverse FXa inhibition by TFPI was assessed by using a low TFPI concentration FXa activity assay. For this test, a truncated human TFPI (TFPI-K1K2) was used, which is common to both TFPI isoforms α and β, having the amino acid sequence SEQ ID No 1:
Adapalene was tested for its ability to release FXa inhibition by TFPI-K1K2 using a colorimetric assay in a 96-well plate format. All steps were performed at room temperature. FXa inhibition by increasing TFPI-K1K2 concentrations was first analyzed to determine the best detection conditions. […]
Briefly, 14.5 μL of 350 μM adapalene, prediluted in the buffer described above, was added to 62.5 μL 50 nM TFPI-K1K2 and mixed together by aspiration/dispensing. After 10 min of incubation at room temperature, 6.25 μL of 8 nM FXa was added, the mixture was mixed again, and the activity of uninhibited FXa was quantified by the addition of 18 μL of PNAPEP-1025 (Cryopep), an FXa substrate, diluted to 2 mM in H2O. […]
The plates were centrifuged to remove any bubbles and the optical density (OD) at 405 nm, corresponding to the hydrolysis of the PNAPEP-1025 substrate, was measured for 1 h at room temperature. The absorbance value at t0, corresponding to an absorbance of 0.05, was subtracted and the […] restoration value was reported as a percentage of the positive control.

[4] = adapalene 0.5 μM final in severe hemophilia A plasma
[5] = adapalene 5 μM final in severe hemophilia A plasma
[6] = adapalene 50 μM final in severe hemophilia A plasma

| Compound | Amount of thrombin at the maximum of the peak, normalized to the thrombin peak obtained with adapalene [1] | peak of generated thrombin compared to negative and positive control, in words [1] | also measured |
| --- | --- | --- | --- |
| COc1ccc(-c2ccc(C(=O)NCC(=O)O)cc2)cc1C12CC3CC(CC(C3)C1)C2 [Compound H24, 2-(3′-(adamantan-1-yl)-4′-methoxy-[1,1′-biphenyl]-4-ylcarboxamido)acetic acid] | 0.23 | – | – |
| COc1ccc(N2CCc3cc(C(=O)O)ccc3C2)cc1C12CC3CC(CC(C3)C1)C2 [Compound H27, 2-(3-(adamantan-1-yl)-4-methoxyphenyl)-1,2,3,4-tetrahydroisoquinoline-6 carboxylic acid] | 0.51 | – | – |
| COc1ccc(-c2ccc3nc(C(=O)O)ccc3c2)cc1C12CC3CC(CC(C3)C1)C2 [Compound H31, 6-(3-(adamantan-1-yl)-4-m2thoxyph2nyl)quinoline-2-carboxylic acid] | 0.62 | – | – |
| COc1ccc(-c2ccc3cc(C(=O)O)cnc3c2)cc1C12CC3CC(CC(C3)C1)C2 [Compound H32, 7-(3-(adamantan-1-yl)-4-methoxyphenyl)quinoline-3-carboxylic acid] | 0.55 | – | – |
| C#CCOc1ccc(-c2ccc3cc(C(=O)O)ccc3c2)cc1C12CC3CC(CC(C3)C1)C2 [Compound H35, 6-(3-(adamantan-1-yl)-4-(prop-2-yn-1-yloxy)phenyl)-2-naphthoic acid] | 0.53 | – | – |
| COc1ccc(-c2ccc3cc(C(=O)O)cc(O)c3c2)cc1C12CC3CC(CC(C3)C1)C2 [Compound H38, 6-(3-(adamantan-1-yl)-4-methoxyphenyl)-4-hydroxy-2-naphthoic acid] | 0.96 | much higher | – |
| COc1ccc(-c2ccc3cc(CS(=O)(=O)O)ccc3c2)cc1C12CC3CC(CC(C3)C1)C2 [Compound H39, (6-(3-(adamantan-1-yl)-4-methoxyphenyl)naphthalen-2-yl)methanesulfonic acid] | 1.22 | much higher | – |
| COc1ccc(-c2ccc3cc(C(=O)O)ccc3c2)cc1C12C[C@H]3C[C@@H](C1)C[C@@H](C2)C3 [adapalene, 6-[3-(1-adamantyl)-4-methoxyphenyl]naphthalene-2-carboxylic acid] | 1 | much higher | generation of thrombin (peak and ETP) compared to negative and positive control, in words ([2]; 50 μM in severe hemophilia A plasma, FIG. 3 and FIG. 4): increase in the generation of thrombin compared to the negative control; ETP (endogenous thrombin potential) [2, 4]: 455 nM·min; thrombin peak [2, 4]: 29.7 nM; ETP (endogenous thrombin potential) [2, 5]: 504 nM·min; thrombin peak [2, 5]: 39 nM; ETP (endogenous thrombin potential) [2, 6]: 588 nM·min; thrombin peak [2, 6]: 55 nM; coagulation restoration percentage (percentage of the positive control) [3]: approximately 14%; optical density (OD) at 405 nm, hydrolysis of PNAPEP-1025 by uninhibited FXa ([3]; negative control OD 0.048, positive control OD 0.406): 0.105 |
